What all share (experiment): biochemical
Common to all, as to set-up: Eurofins KinaseProfiler full panel at Km ATP, residual kinase activity (%) relative to DMSO

The target in one test is CDK6/cyclinD3(h) (Homo sapiens, UniProt Q00534). The gist of the method:
(§1)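 Two 10 µM single-concentration screens were run: a competition-binding screen, in which DNA-tagged kinase bound to immobilized ligands was quantified by qPCR, and a radiometric activity panel at Km ATP. Each is expressed as residual kinase activity (%).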

Another test addresses T1, EphB2(h) (Homo sapiens, UniProt P29323).
T1 sequence (P29323 1-1055): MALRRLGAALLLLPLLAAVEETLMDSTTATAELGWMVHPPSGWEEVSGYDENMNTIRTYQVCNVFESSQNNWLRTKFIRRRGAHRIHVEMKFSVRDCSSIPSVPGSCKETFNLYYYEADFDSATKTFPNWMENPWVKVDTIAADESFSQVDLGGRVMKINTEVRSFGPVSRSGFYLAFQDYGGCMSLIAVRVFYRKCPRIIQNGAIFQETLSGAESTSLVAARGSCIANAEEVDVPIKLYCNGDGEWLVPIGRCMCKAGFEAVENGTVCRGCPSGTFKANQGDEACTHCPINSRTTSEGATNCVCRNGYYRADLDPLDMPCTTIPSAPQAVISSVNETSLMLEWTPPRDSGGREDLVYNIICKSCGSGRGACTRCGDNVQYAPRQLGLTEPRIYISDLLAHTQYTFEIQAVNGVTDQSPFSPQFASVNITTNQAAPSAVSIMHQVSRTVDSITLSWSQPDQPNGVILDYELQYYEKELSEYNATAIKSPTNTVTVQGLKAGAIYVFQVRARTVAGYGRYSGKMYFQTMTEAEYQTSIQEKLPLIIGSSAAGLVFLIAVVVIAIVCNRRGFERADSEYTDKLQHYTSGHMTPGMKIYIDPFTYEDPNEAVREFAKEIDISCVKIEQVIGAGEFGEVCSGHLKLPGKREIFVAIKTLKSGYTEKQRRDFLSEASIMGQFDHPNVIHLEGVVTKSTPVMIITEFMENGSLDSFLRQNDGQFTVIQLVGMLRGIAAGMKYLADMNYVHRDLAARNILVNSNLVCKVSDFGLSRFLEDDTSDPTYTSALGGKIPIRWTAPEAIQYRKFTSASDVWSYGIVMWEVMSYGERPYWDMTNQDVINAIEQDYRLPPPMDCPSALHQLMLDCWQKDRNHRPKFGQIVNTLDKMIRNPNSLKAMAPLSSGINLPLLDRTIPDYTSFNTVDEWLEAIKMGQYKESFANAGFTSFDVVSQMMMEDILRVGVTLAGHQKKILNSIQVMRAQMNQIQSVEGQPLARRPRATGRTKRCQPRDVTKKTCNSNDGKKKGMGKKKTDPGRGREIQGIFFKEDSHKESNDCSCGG
The gist of the method: as §1

Another test concerns the target T2, NEK2(h) (Homo sapiens, UniProt P51955).
T2 sequence (P51955 1-445): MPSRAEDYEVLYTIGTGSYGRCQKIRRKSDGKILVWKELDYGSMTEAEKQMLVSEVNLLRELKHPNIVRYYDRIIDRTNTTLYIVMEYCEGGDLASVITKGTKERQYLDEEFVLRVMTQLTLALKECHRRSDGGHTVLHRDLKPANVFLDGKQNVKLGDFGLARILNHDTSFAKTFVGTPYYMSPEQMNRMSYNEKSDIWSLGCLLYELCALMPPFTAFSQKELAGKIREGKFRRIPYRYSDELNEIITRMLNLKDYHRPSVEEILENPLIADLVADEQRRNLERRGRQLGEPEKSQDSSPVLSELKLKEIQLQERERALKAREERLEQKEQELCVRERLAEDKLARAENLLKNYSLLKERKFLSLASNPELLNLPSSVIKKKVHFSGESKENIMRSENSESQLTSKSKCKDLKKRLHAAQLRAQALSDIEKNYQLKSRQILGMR
The gist of the method:
as §1

The target of a further test is T3, PKCβII(h) (Homo sapiens, UniProt P05771).
T3 construct: gene PRKCB; isoform beta II
T3 sequence (P05771 whole entry, canonical isoform): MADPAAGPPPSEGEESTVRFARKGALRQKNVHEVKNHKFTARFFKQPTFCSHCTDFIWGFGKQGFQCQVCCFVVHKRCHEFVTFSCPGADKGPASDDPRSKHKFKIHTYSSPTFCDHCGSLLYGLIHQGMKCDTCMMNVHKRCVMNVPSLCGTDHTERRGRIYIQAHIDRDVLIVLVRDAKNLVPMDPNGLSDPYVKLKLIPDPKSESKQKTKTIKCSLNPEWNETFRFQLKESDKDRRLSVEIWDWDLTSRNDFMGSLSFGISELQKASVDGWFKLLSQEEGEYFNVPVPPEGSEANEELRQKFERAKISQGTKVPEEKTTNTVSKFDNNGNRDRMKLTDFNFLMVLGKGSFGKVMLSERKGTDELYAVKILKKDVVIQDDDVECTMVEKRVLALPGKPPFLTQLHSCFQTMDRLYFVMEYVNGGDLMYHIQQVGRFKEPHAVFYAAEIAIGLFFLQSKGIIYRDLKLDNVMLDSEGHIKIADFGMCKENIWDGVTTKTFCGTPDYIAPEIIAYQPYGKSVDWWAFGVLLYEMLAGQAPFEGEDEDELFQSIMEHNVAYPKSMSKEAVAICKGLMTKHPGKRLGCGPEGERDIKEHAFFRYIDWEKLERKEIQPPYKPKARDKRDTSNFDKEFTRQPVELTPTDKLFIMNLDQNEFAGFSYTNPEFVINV
The gist of the method: as §1

In a further test the target is T4, Txk(h) (Homo sapiens, UniProt P42681).
T4 sequence (P42681 1-527): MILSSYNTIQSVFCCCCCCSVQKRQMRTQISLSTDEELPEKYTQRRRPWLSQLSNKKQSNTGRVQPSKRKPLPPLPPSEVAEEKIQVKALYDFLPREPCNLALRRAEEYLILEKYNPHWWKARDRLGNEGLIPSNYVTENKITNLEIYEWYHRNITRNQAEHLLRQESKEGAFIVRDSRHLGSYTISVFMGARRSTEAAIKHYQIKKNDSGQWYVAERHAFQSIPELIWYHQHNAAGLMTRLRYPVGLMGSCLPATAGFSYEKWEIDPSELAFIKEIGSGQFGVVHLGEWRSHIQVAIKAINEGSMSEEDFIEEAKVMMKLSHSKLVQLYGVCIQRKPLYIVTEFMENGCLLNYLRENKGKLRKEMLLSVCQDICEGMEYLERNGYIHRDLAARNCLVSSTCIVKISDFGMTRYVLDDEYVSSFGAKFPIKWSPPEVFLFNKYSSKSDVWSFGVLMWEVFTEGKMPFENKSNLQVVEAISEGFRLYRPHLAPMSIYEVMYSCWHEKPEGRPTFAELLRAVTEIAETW
The gist of the method:
as §1

[1] abbreviates: read-out: Residual activity (%) Spautin-1 5aa.
[2] abbreviates: read-out: Residual activity (%) 5as.
Where [3] appears, read: read-out: Residual activity (%) 5at.
[4] abbreviates: read-out: Residual activity (%) 5ay.

Each structure is given as a SMILES string. Where two headings read alike, the source gives them in different places.

CDK6/cyclinD3(h), sequence (Q00534 whole entry): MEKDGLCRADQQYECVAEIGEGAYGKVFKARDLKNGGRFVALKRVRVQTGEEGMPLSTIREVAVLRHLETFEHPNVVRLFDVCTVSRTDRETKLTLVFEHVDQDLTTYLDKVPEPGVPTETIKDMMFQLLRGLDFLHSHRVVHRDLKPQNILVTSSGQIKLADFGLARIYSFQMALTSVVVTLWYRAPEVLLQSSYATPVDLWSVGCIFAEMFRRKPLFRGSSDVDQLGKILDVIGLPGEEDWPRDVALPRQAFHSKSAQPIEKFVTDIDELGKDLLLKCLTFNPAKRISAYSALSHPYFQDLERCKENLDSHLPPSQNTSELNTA
CDK6/cyclinD3(h), sequence (P30281 whole entry partner): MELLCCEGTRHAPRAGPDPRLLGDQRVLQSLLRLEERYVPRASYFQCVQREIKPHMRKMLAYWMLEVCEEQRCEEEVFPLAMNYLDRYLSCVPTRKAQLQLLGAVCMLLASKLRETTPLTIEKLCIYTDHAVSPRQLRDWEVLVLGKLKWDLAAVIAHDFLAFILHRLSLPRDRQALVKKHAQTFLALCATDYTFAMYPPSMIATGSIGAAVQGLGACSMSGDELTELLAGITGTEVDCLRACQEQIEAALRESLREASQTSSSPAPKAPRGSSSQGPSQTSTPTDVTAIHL

Take `Fc1ccc(CNc2ncnc3ccc(F)cc23)cc1` [5aa, 6-Fluoro-N-(4-fluorobenzyl)-4-Quinazolinamine]: the remaining activity at 10 µM worked out at 102% at CDK6/cyclinD3(h) (setting [1]); 96% on EphB2(h) (setting [1]); 91% at NEK2(h) (setting [1]); 107% on PKCβII(h) (setting [1]); 92% at Txk(h) (setting [1]).

On to `Fc1ccc(CCNc2ncnc3ccc(F)cc23)cc1` [5as, 6-Fluoro-N-[2-(4-Fluorophenyl)Ethyl]-4-Quinazolinamine], for which the remaining activity at 10 µM on CDK6/cyclinD3(h) (setting [2]) was found to be 96%; on EphB2(h) (setting [2]), 82%; at NEK2(h) (setting [2]) it was 88%; on PKCβII(h) (setting [2]), 100%; at Txk(h) (setting [2]), 83%.

As to `Fc1ccc2ncnc(NCCc3ccc(Cl)cc3)c2c1` [5at, N-[2-(4-Chlorophenyl)Ethyl]-6-Fluoro-4-Quinazolinamine], the remaining activity at 10 µM worked out at 98% on CDK6/cyclinD3(h) (setting [3]); 93% on EphB2(h) (setting [3]); 95% at NEK2(h) (setting [3]); 104% at PKCβII(h) (setting [3]); 82% at Txk(h) (setting [3]).

Turning to `COc1ccc2ncnc(Nc3cccc(F)c3)c2c1` [5ay, N-(3-Fluorophenyl)-6-Methoxy-4-Quinazolinamine], the remaining activity at 10 µM came to 87% at CDK6/cyclinD3(h) (setting [4]); 97% at EphB2(h) (setting [4]); 92% on NEK2(h) (setting [4]); 110% at PKCβII(h) (setting [4]); 85% on Txk(h) (setting [4]).
